Data taken from patent US20130130306A1, “ZN (II) BASED COLORIMETRIC SENSOR AND PROCESS FOR THE PREPARATION THEREOF” (COUNCIL OF SCIENTIFIC & INDUSTRIAL RESEARCH, priority 2010, published 2013).
“Also recorded” adds a separate entry of the source.

Key:
[1] = system: Pseudomonas fluorescence (Gram −ve); assay: Staining of Gram −ve bacteria, light microscopy and growth kinetics; format: cell-based; design: change in color of bacterial stains: dose or concentration left out as unconfirmed; conditions: for growth of colonies streaked on nutrient agar plates after incubation with sensor: Pseudomonas species in King's B media, 25° C., 10 mins
Description: The isolates of Saccharomyces sp. were cultured in GYE (glucose yeast extract agar) media, Bacillus sp. in Nutrient broth, and Pseudomonas sp. in King's B medium for 24 hour at 37° C. […] of this was taken and was allowed to incubate at 30 to 40° C. along with 100 μl of L.Zn (Scheme 1, Formula 1A) (1.16×10^−4 M) solution. The samples were fixed overnight at room temperature 25-30° C. with 2% (v/v) glutaraldehyde in 0.1 M phosphate buffer at pH 7.5. The samples were then washed with 0.1 M phosphate buffer (pH 7.5) at room temperature 25-30° C. for 1 hour. Post-fixation was carried out in 2% (w/v) osmium tetroxide (OsO4) in the same buffer and was washed once with 0.1 M phosphate buffer for 20 minutes. Then, the water was removed by a graded water-ethanol series; 25% ethanol for 15 min, 50% ethanol for 15 min, 75% ethanol for 30 min, 90% ethanol for 60 min, absolute alcohol for 30 min. The specimens were rinsed in buffer and coated with gold in a sputter coater (Polaron SC7620) prior to microscopy. The material was examined in a Scanning Electron Microscope (SEM) LEO 1430 VP at an accelerating Voltage of 15 kV.
The isolates of Saccharomyces sp. were cultured in GYE (glucose yeast extract agar) media, Bacillus sp. in Nutrient broth, and Pseudomonas sp. in King's B medium for 24 hour at 37° C. 1001 of this was taken and was allowed to incubate at room temperature along with 1001 of [L.Zn]=1.16×10^−4M solution (pH 7.2, 10 mM HEPES buffer solution). The samples were fixed overnight at 25 to 35° C. with 2% (v/v) glutaraldehyde in 0.1 M phosphate buffer at pH 7.5. The samples were then; washed with 0.1 M phosphate buffer (pH 7.5) at 25 to 35° C. for 1 hour. Post-fixation was carried out in 2% (w/v) osmium tetroxide (OsO4) in the same buffer and was washed once with 0.1 M phosphate buffer for 20 minutes. Then, the water was removed by a graded water-ethanol series; 25% ethanol for 15 min, 50% ethanol for 15 min, 75% ethanol for 30 min, 90% ethanol for 60 min, absolute alcohol for 30 min. The specimens were rinsed in buffer and coated with gold in a sputter coater (Polaron SC7620) prior to microscopy. The material was examined in a scanning electron microscope (SEM) LEO 1430 VP at an accelerating Voltage of 15 kV.
We also explored the possibility of using L.Zn/L.Zn.α-CD as the staining agent for prokaryotes (Gram +ve and Gram −ve bacterial cells). […] As expected stained cells for Gram +ve bacteria appeared longer as compared to those of the stained Gram −ve bacteria. The difference in the staining intensity for two different bacteria with the L.Zn.α-CD (Scheme 2) could be much better understood after going into the depth of cell biology of each bacterial cells and the detailed biochemistry involved while staining; besides, difference in cell structure and cell wall composition of the respective bacteria. […] Changes on the cell surfaces on binding of the dye, L.Zn (Scheme 1, Formula 1A) were also evident from the SEM images recorded for Gram −ve and Gram +ve bacteria, in absence and presence of staining agent (FIGS. 11C to 11F). Difference in the contrasts in the SEM images of the sample surfaces also signifies the non-homogeneous chemical nature of the sample surface. […] The growth profile of Eukaryotic Yeast cells (Saccharomyces cerevisiae) and Prokaryotic bacterial cells ([…]) in an aqueous culture medium in absence and presence of L.Zn (Scheme 1, Formula 1A) are shown in FIG. 12. […]

[2] = system: living microbes (eukaryotes and prokaryotes); assay: Toxicity and viability of cells after staining; format: cell-based
Source text: We also explored the possibility of using L.Zn/L.Zn.α-CD as the staining agent for prokaryotes (Gram +ve and Gram −ve bacterial cells). […] As expected stained cells for Gram +ve bacteria appeared longer as compared to those of the stained Gram −ve bacteria. The difference in the staining intensity for two different bacteria with the L.Zn.α-CD (Scheme 2) could be much better understood after going into the depth of cell biology of each bacterial cells and the detailed biochemistry involved while staining; besides, difference in cell structure and cell wall composition of the respective bacteria. […] Changes on the cell surfaces on binding of the dye, L.Zn (Scheme 1, Formula 1A) were also evident from the SEM images recorded for Gram −ve and Gram +ve bacteria, in absence and presence of staining agent (FIGS. 11C to 11F). Difference in the contrasts in the SEM images of the sample surfaces also signifies the non-homogeneous chemical nature of the sample surface. Relatively brighter cell exterior for Gram −ve bacteria, as compared to the Gram +ve one indicates the accumulation of higher negative charge on the extra-cellular surface. […] The growth profile of Eukaryotic Yeast cells (Saccharomyces cerevisiae) and Prokaryotic bacterial cells ([…]) in an aqueous culture medium in absence and presence of L.Zn (Scheme 1, Formula 1A) are shown in FIG. 12. Change in absorbance (at λmax=600 nm) vs time (t) was plotted up to 30 h; as no appreciable change in growth was observed thereafter. […] FIGS. 12a, 12c and 12e show the actual growth curve of Saccharomyces cerevisiae, Pseudomonas fluorescence and Bacillus megaterium, respectively with time. While, FIGS. 12b, 12d and 12f show relative build up of ATP in cytoplasm with time for Saccharomyces cerevisiae, Pseudomonas fluorescence and Bacillus megaterium, respectively in presence of L.Zn (Scheme 1, Formula 1A) (D1) and L.Zn.α-CD (Scheme 2) (D2). […]

Q: `CN(C)c1ccc(N=Nc2ccc(S(=O)(=O)N3CCCNCCNCCCNCC3)cc2)cc1.O=[N+]([O-])[O-].O=[N+]([O-])[O-].[Zn+2]` [L.Zn] was tested. Which “growth of colonies streaked on nutrient agar plates after incubation with sensor” value (“growth of colonies streaked” for short) ([1]; sensor 1.0×10^−4 M) did it give?
A: colonies of the test microbes grew

Q: And the “growth of colonies streaked” value ([1]; sensor 1.25×10^−4 M)?
A: colonies of the test microbes grew

Q: And the “growth of colonies streaked” value ([1]; sensor 1.45×10^−4 M)?
A: colonies of the test microbes grew

Q: And the “binding to ATP released during cell growth, Gram −ve compared to Gram +ve” value ([1]; extent of absorbance changes and slope, growth kinetics at 600 nm)?
A: higher binding

Q: What about the “change in color of bacterial stains” value ([1]; light microscopy) of the same compound?
A: distinct change in color

Q: And the “growth of stained cells in their respective media” value ([2]; after staining)?
A: stained cells were found to grow in their respective media

Q: What about the “toxicity to living cells” value ([2]; eukaryotes and prokaryotes, cell proliferation and growth after staining) of the same compound?
A: non-toxic; also recorded: non toxic

Q: And the “viability of stained cells, hanging drop in concavity slide” value ([2]; light microscope, until 3 h)?
A: cell growth, cell division, as well as their motility could be observed
